Drawing on patent US20250145665A1, “MACROCYCLIC PEPTIDES USEFUL AS MODULATORS OF TNF ALPHA” (Bristol-Myers Squibb Company, priority 2023, published 2025), this text covers IC50 for 15 compounds.

pIC50: −log10 of the molar value. Starred links: 1 amine or outer side, 2 acyl side, 3 side chain; linkers in the order of their positions; H or OH if unused. Positions of bridges follow the written chain, without caps; N, C: chain ends. Non-standard residues stand in square brackets, D forms with d. Residues, ends and D or L forms follow the SMILES beside them. ξ: configuration not given here. Bip(4'-COOH) = N[C@@H](Cc1ccc(-c2ccc(C(=O)O)cc2)cc1)C(=O)O; Bip(4'-NHAc) = CC(=O)Nc1ccc(-c2ccc(C[C@H](N)C(=O)O)cc2)cc1; Phe(3-CH2NH2) = O=C([C@H](Cc1cccc(CN[*:3])c1)N[*:1])[*:2]; Ala(morpholin-4-yl) = N[C@@H](CN1CCOCC1)C(=O)O; Phe(3-CONH2) = NC(=O)c1cccc(C[C@H](N)C(=O)O)c1; Bip = N[C@@H](Cc1ccc(-c2ccccc2)cc1)C(=O)O; Ala(2-furyl) = N[C@@H](Cc1ccco1)C(=O)O; Phe(2-Me) = Cc1ccccc1C[C@H](N)C(=O)O; 2Pal = N[C@@H](Cc1ccccn1)C(=O)O; 2Thi = N[C@@H](Cc1cccs1)C(=O)O; Cha = N[C@@H](CC1CCCCC1)C(=O)O; Tle = CC(C)(C)[C@H](N)C(=O)O; ξIle = CC[C@H](C)C(N)C(=O)O; Sar = CNCC(=O)O

The target in the experiment is TNFα (Homo sapiens, UniProt P01375). Kind of experiment: TNF-Induced HEK-Blue Assay. The experiment is classed as cell-based. As to conditions: HEK-Blue-CD40L cells, NF-kB-driven secreted alkaline phosphatase reporter; TNFα 0.5 ng/ml; 18 h; read-out: TNF induced HEK-Blue assay IC50 value.
Sequence of TNFα (P01375 77-233 limits assumed): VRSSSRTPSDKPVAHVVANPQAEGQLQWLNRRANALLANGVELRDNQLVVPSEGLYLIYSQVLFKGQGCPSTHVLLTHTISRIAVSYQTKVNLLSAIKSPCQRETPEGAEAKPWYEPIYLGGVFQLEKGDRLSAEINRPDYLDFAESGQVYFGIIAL
For `CC(=O)Nc1ccc(-c2ccc(C[C@@H]3NC(=O)[C@H](Cc4ccc(-c5ccc(C(=O)O)cc5)cc4)NC(=O)[C@H](CC4CCCCC4)NC(=O)CSC[C@@H](C(=O)NCC(N)=O)NC(=O)[C@H](CC(C)C)NC(=O)[C@H](Cc4ccco4)NC(=O)[C@H](C(C)C)NC(=O)[C@@H]4CCCN4C(=O)[C@H](C(C)C)NC(=O)[C@@H](CCCNC(=N)N)NC(=O)[C@H](CC(=O)O)NC(=O)[C@@H]4CCCN4C(=O)CN(C)C3=O)cc2)cc1` [Example 246] ({CH2CO}-[Cha][Bip(4'-COOH)][Bip(4'-NHAc)][Sar]PD[dR]VPV[Ala(2-furyl)]LCG-NH2; thioether N-13), the pIC50 (in general, the IC50 on a negative log10 scale, so that one unit is a factor of ten) was 6.70 to 7.30.

Regarding `CC(=O)Nc1ccc(-c2ccc(C[C@@H]3NC(=O)[C@H](Cc4ccc(-c5ccc(C(=O)O)cc5)cc4)NC(=O)[C@H](CC4CCCCC4)NC(=O)CSC[C@@H](C(=O)NCC(N)=O)NC(=O)[C@H](CC(C)C)NC(=O)[C@H](Cc4ccc(O)cc4)NC(=O)[C@H](C(C)C)NC(=O)[C@@H]4CCCN4C(=O)[C@H](CC(N)=O)NC(=O)[C@@H](CCCNC(=N)N)NC(=O)[C@H](CC(=O)O)NC(=O)[C@@H]4CCCN4C(=O)CN(C)C3=O)cc2)cc1` [Example 247] ({CH2CO}-[Cha][Bip(4'-COOH)][Bip(4'-NHAc)][Sar]PD[dR]NPVYLCG-NH2; thioether N-13), the pIC50 was 6.70 to 7.30. On to `CC(=O)Nc1ccc(-c2ccc(C[C@@H]3NC(=O)[C@H](Cc4ccc(-c5ccc(C(=O)O)cc5)cc4)NC(=O)[C@H](CC4CCCCC4)NC(=O)CSC[C@@H](C(=O)NCC(N)=O)NC(=O)[C@H](CC(C)C)NC(=O)[C@H](Cc4cnc[nH]4)NC(=O)[C@H](C(C)C)NC(=O)[C@@H]4CCCN4C(=O)[C@H](CC(N)=O)NC(=O)[C@@H](CCCNC(=N)N)NC(=O)[C@H](CC(=O)O)NC(=O)[C@H](Cc4ccc(O)cc4)NC(=O)CN(C)C3=O)cc2)cc1` [Example 248] ({CH2CO}-[Cha][Bip(4'-COOH)][Bip(4'-NHAc)][Sar]YD[dR]NPVHLCG-NH2; thioether N-13), for which the pIC50 was 6.70 to 7.30. In the case of `CC(=O)Nc1ccc(-c2ccc(C[C@@H]3NC(=O)[C@H](Cc4ccc(-c5ccccc5)cc4)NC(=O)[C@H](CC4CCCCC4)NC(=O)CSC[C@@H](C(=O)N[C@@H](CCC(=O)O)C(N)=O)NC(=O)[C@H](CC(C)C)NC(=O)[C@H](Cc4cnc[nH]4)NC(=O)[C@H](C(C)C)NC(=O)[C@@H]4CCCN4C(=O)[C@H](C(C)C)NC(=O)[C@@H](CCCNC(=N)N)NC(=O)[C@H](CC(=O)O)NC(=O)[C@H](Cc4ccc(O)cc4)NC(=O)CN(C)C3=O)cc2)cc1` [Example 249] ({CH2CO}-[Cha][Bip][Bip(4'-NHAc)][Sar]YD[dR]VPVHLCE-NH2; thioether N-13) it was 6.70 to 7.30. For the compound `CC(=O)Nc1ccc(-c2ccc(C[C@@H]3NC(=O)[C@H](Cc4ccc(-c5ccc(C(=O)O)cc5)cc4)NC(=O)[C@H](CC4CCCCC4)NC(=O)CSC[C@@H](C(=O)NCC(N)=O)NC(=O)[C@H](CC(C)C)NC(=O)[C@H](Cc4cccc(C(N)=O)c4)NC(=O)[C@H](C(C)C)NC(=O)[C@@H]4CCCN4C(=O)[C@H](C(C)C)NC(=O)[C@@H](CCCNC(=N)N)NC(=O)[C@H](CC(=O)O)NC(=O)[C@H](Cc4ccccn4)NC(=O)CN(C)C3=O)cc2)cc1` [Example 251] ({CH2CO}-[Cha][Bip(4'-COOH)][Bip(4'-NHAc)][Sar][2Pal]D[dR]VPV[Phe(3-CONH2)]LCG-NH2; thioether N-13), the pIC50 was over 7.30. On to `CC(=O)Nc1ccc(-c2ccc(C[C@@H]3NC(=O)[C@H](Cc4ccc(-c5ccc(C(=O)O)cc5)cc4)NC(=O)[C@H](CC4CCCCC4)NC(=O)CSC[C@@H](C(=O)NCC(N)=O)NC(=O)[C@H](CC(C)C)NC(=O)[C@H](Cc4cccc(C(N)=O)c4)NC(=O)[C@H](C(C)C)NC(=O)[C@@H]4CCCN4C(=O)[C@H](C(C)C)NC(=O)[C@@H](CCCNC(=N)N)NC(=O)[C@H](CC(=O)O)NC(=O)[C@H](Cc4ccc(O)cc4)NC(=O)CN(C)C3=O)cc2)cc1` [Example 252] ({CH2CO}-[Cha][Bip(4'-COOH)][Bip(4'-NHAc)][Sar]YD[dR]VPV[Phe(3-CONH2)]LCG-NH2; thioether N-13), for which the negative logarithm of the IC50 (pIC50) is over 7.30. In the case of `CC(=O)Nc1ccc(-c2ccc(C[C@@H]3NC(=O)[C@H](Cc4ccc(-c5ccccc5)cc4)NC(=O)[C@H](CC4CCCCC4)NC(=O)CSC[C@@H](C(=O)NCC(N)=O)NC(=O)[C@H](CC(C)C)NC(=O)[C@H](Cc4cnc[nH]4)NC(=O)[C@H](C(C)C)NC(=O)[C@@H]4CCCN4C(=O)[C@H](CC(N)=O)NC(=O)[C@@H](CCCNC(=N)N)NC(=O)[C@H](CC(=O)O)NC(=O)[C@@H]4CCCN4C(=O)CN(C)C3=O)cc2)cc1` [Example 253] ({CH2CO}-[Cha][Bip][Bip(4'-NHAc)][Sar]PD[dR]NPVHLCG-NH2; thioether N-13) it was 6.70 to 7.30; in that of `CC(=O)Nc1ccc(-c2ccc(C[C@@H]3NC(=O)[C@H](Cc4ccc(-c5ccc(C(=O)O)cc5)cc4)NC(=O)[C@H](CC4CCCCC4)NC(=O)CSC[C@@H](C(=O)NCC(N)=O)NC(=O)[C@H](CC(C)C)NC(=O)[C@H](Cc4cccc(CN)c4)NC(=O)[C@H](C(C)C)NC(=O)[C@@H]4CCCN4C(=O)[C@H](C(C)C)NC(=O)[C@@H](CCCNC(=N)N)NC(=O)[C@H](CC(=O)O)NC(=O)[C@@H]4CCCN4C(=O)CN(C)C3=O)cc2)cc1` [Example 254] ({CH2CO}-[Cha][Bip(4'-COOH)][Bip(4'-NHAc)][Sar]PD[dR]VPV[Phe(3-CH2NH2)]LCG-NH2; thioether N-13), 5.70 to 6.70; in that of `CC(=O)Nc1ccc(-c2ccc(C[C@@H]3NC(=O)[C@H](Cc4ccc(-c5ccc(C(=O)O)cc5)cc4)NC(=O)[C@H](CC4CCCCC4)NC(=O)CSC[C@@H](C(=O)NCC(N)=O)NC(=O)[C@H](CC(C)C)NC(=O)[C@H](Cc4ccccc4C)NC(=O)[C@H](C(C)C)NC(=O)[C@@H]4CCCN4C(=O)[C@H](C(C)C)NC(=O)[C@@H](CCCNC(=N)N)NC(=O)[C@H](CC(=O)O)NC(=O)[C@@H]4CCCN4C(=O)CN(C)C3=O)cc2)cc1` [Example 255] ({CH2CO}-[Cha][Bip(4'-COOH)][Bip(4'-NHAc)][Sar]PD[dR]VPV[Phe(2-Me)]LCG-NH2; thioether N-13), 6.70 to 7.30. Next, `CC[C@H](C)[C@@H]1NC(=O)[C@@H](CCCNC(=N)N)NC(=O)[C@H](CC(=O)O)NC(=O)[C@@H]2CCCN2C(=O)CN(C)C(=O)[C@H](Cc2ccc(-c3ccc(NC(C)=O)cc3)cc2)NC(=O)[C@H](Cc2ccc(-c3ccc(C(=O)O)cc3)cc2)NC(=O)[C@H](CC2CCCCC2)NC(=O)CSC[C@@H](C(=O)NCC(N)=O)NC(=O)[C@H](CC(C)C)NC(=O)[C@H](Cc2ccc(O)cc2)NC(=O)[C@H](C(C)C)NC(=O)[C@@H]2CCCN2C1=O` [Example 256] ({CH2CO}-[Cha][Bip(4'-COOH)][Bip(4'-NHAc)][Sar]PD[dR]IPVYLCG-NH2; thioether N-13): 6.70 to 7.30; `CC[C@H](C)[C@@H]1NC(=O)[C@@H](CCCNC(=N)N)NC(=O)[C@H](CC(=O)O)NC(=O)[C@H](Cc2cnc[nH]2)NC(=O)CN(C)C(=O)[C@H](Cc2ccc(-c3ccc(NC(C)=O)cc3)cc2)NC(=O)[C@H](Cc2ccc(-c3ccc(C(=O)O)cc3)cc2)NC(=O)[C@H](CC2CCCCC2)NC(=O)CSC[C@@H](C(=O)NCC(N)=O)NC(=O)[C@H](CC(C)C)NC(=O)[C@H](Cc2cnc[nH]2)NC(=O)[C@H](C(C)C)NC(=O)[C@@H]2CCCN2C1=O` [Example 257] ({CH2CO}-[Cha][Bip(4'-COOH)][Bip(4'-NHAc)][Sar]HD[dR]IPVHLCG-NH2; thioether N-13): over 7.30. In the case of `CC[C@H](C)C1NC(=O)[C@@H](CCCNC(=N)N)NC(=O)[C@H](CC(=O)O)NC(=O)[C@H](Cc2ccc(O)cc2)NC(=O)CN(C)C(=O)[C@H](Cc2ccc(-c3ccc(NC(C)=O)cc3)cc2)NC(=O)[C@H](Cc2ccc(-c3ccccc3)cc2)NC(=O)[C@H](CN2CCOCC2)NC(=O)CSC[C@@H](C(=O)NCC(N)=O)NC(=O)[C@H](CC(C)C)NC(=O)[C@H](Cc2cccs2)NC(=O)[C@H](C(C)C)NC(=O)[C@@H]2CCCN2C1=O` (stereo partly drawn) [Example 258] ({CH2CO}-[Ala(morpholin-4-yl)][Bip][Bip(4'-NHAc)][Sar]YD[dR][ξIle]PV[2Thi]LCG-NH2; thioether N-13) it was 6.70 to 7.30; in that of `CC(=O)Nc1ccc(-c2ccc(C[C@@H]3NC(=O)[C@H](Cc4ccc(-c5ccccc5)cc4)NC(=O)[C@H](C(C)(C)C)NC(=O)CSC[C@@H](C(=O)NCC(N)=O)NC(=O)[C@H](CC(C)C)NC(=O)[C@H](Cc4cccs4)NC(=O)[C@H](C(C)C)NC(=O)[C@@H]4CCCN4C(=O)[C@H](C(C)C)NC(=O)[C@@H](CCCNC(=N)N)NC(=O)[C@H](CC(=O)O)NC(=O)[C@H](Cc4ccc(O)cc4)NC(=O)CN(C)C3=O)cc2)cc1` [Example 259] ({CH2CO}-[Tle][Bip][Bip(4'-NHAc)][Sar]YD[dR]VPV[2Thi]LCG-NH2; thioether N-13), over 7.30; in that of `CC[C@H](C)[C@@H]1NC(=O)[C@@H](CCCNC(=N)N)NC(=O)[C@H](CC(=O)O)NC(=O)[C@H](Cc2ccc(O)cc2)NC(=O)CN(C)C(=O)[C@H](Cc2ccc(-c3ccc(NC(C)=O)cc3)cc2)NC(=O)[C@H](Cc2ccc(-c3ccccc3)cc2)NC(=O)[C@H](C(C)(C)C)NC(=O)CSC[C@@H](C(=O)NCC(N)=O)NC(=O)[C@H](CC(C)C)NC(=O)[C@H](Cc2cccs2)NC(=O)[C@H](C(C)C)NC(=O)[C@@H]2CCCN2C1=O` [Example 260] ({CH2CO}-[Tle][Bip][Bip(4'-NHAc)][Sar]YD[dR]IPV[2Thi]LCG-NH2; thioether N-13), over 7.30. Regarding `CC(=O)Nc1ccc(-c2ccc(C[C@@H]3NC(=O)[C@H](Cc4ccc(-c5ccc(C(=O)O)cc5)cc4)NC(=O)[C@H](C(C)(C)C)NC(=O)CSC[C@@H](C(=O)NCC(N)=O)NC(=O)[C@H](CC(C)C)NC(=O)[C@H](Cc4cnc[nH]4)NC(=O)[C@H](C(C)C)NC(=O)[C@@H]4CCCN4C(=O)[C@H](C(C)C)NC(=O)[C@@H](CCCNC(=N)N)NC(=O)[C@H](CC(=O)O)NC(=O)[C@H](Cc4ccccc4)NC(=O)CN(C)C3=O)cc2)cc1` [Example 261] ({CH2CO}-[Tle][Bip(4'-COOH)][Bip(4'-NHAc)][Sar]FD[dR]VPVHLCG-NH2; thioether N-13), the pIC50 is over 7.30.
